Data published in ChEMBL document CHEMBL4251601 (Eur J Med Chem, 2018).

biological target: Cyclin-dependent kinase 4/cyclin D1 (Homo sapiens, UniProt P11802); assay: Inhibition of CDK4/Cyclin-D1 (unknown origin) using histone-H1 as substrate after 90 mins by ADP-Glo assay; type: protein-complex assay
Sequence (P11802 whole entry): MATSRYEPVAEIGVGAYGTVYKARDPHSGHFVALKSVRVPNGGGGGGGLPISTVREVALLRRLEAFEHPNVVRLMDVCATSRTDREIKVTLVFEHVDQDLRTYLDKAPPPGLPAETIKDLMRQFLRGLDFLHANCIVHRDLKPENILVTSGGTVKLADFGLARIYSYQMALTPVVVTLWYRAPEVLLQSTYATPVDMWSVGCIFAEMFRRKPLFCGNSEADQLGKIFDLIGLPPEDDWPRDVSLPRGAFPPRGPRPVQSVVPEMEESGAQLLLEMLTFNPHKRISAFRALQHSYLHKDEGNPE
Sequence (P24385 whole entry, further chain): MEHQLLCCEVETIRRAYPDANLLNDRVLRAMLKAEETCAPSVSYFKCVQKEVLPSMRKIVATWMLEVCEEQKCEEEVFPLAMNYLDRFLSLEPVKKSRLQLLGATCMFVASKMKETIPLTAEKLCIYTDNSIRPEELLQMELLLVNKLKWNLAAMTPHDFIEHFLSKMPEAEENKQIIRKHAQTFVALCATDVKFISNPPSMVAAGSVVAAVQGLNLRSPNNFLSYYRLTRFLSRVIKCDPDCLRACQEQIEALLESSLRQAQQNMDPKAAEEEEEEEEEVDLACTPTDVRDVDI

SMILES | IC50
CC1=Nc2ccc(-c3nc(Nc4ccc(C5CCN(C)CC5)cn4)ncc3F)cc2C12CCCC2 | 8 nM
CC1=Nc2c(F)cc(-c3nc(Nc4ccc(N5CCN(C(C)C)CC5)cn4)ncc3F)cc2C12CCCC2 | 78 nM
CC1=Nc2c(F)cc(-c3nc(Nc4ccc(N5CCN(CCO)CC5)cn4)ncc3F)cc2C12CCCC2 | 17 nM
CCN1CCN(Cc2ccc(Nc3ncc(F)c(-c4ccc5c(c4)C4(CCCC4)C(C)=N5)n3)nc2)CC1 | 13 nM
CCC1(C)C(C)=Nc2ccc(-c3nc(Nc4ccc(N5CCN(C)CC5)cn4)ncc3F)cc21 (configuration not stated) | 35 nM
CCC1(C)C(C)=Nc2ccc(-c3nc(Nc4ccc(C5CCN(C)CC5)cn4)ncc3F)cc21 (configuration not stated) | 18 nM
CCN1CCC(c2ccc(Nc3ncc(F)c(-c4cc(F)c5c(c4)C(C)(CC)C(C)=N5)n3)nc2)CC1 (configuration not stated) | 16 nM

organism: Homo sapiens; assay: Selectivity ratio of IC50 for CDK1/Cyclin-A2 (unknown origin) to IC50 for CDK6/Cyclin-D3 (unknown origin)

SMILES | Ratio IC50
CC1=Nc2c(F)cc(-c3nc(Nc4ccc(C5CCN(CCO)CC5)cn4)ncc3F)cc2C12CCCC2 | 352
CCC1(C)C(C)=Nc2c(F)cc(-c3nc(Nc4ccc(C5CCNCC5)cn4)ncc3F)cc21 (configuration not stated) | 18
CCN1CCN(Cc2ccc(Nc3ncc(F)c(-c4cc(F)c5c(c4)C(CC)(CC)C(C)=N5)n3)nc2)CC1 | 9
CCN1CCN(c2ccc(Nc3ncc(F)c(-c4ccc5c(c4)C(C)(CC)C(C)=N5)n3)nc2)CC1 (configuration not stated) | 25
CC1=Nc2ccc(-c3nc(Nc4ccc(C5CCN(C)CC5)cn4)ncc3F)cc2C12CCCC2 | 12
CC1=Nc2c(F)cc(-c3nc(Nc4ccc(N5CCN(C(C)C)CC5)cn4)ncc3F)cc2C12CCCC2 | 106
CC1=Nc2c(F)cc(-c3nc(Nc4ccc(N5CCN(CCO)CC5)cn4)ncc3F)cc2C12CCCC2 | 55
CC1=Nc2c(F)cc(-c3nc(Nc4ccc(N5CCNCC5)cn4)ncc3F)cc2C1(C)C | 52
CCC1(C)C(C)=Nc2ccc(-c3nc(Nc4ccc(C5CCNCC5)cn4)ncc3F)cc21 (configuration not stated) | 10
CCN1CCN(c2ccc(Nc3ncc(F)c(-c4cc(F)c5c(c4)C(C)(CC)C(C)=N5)n3)nc2)CC1 (configuration not stated) | 1
CCN1CCN(Cc2ccc(Nc3ncc(F)c(-c4ccc5c(c4)C4(CCCC4)C(C)=N5)n3)nc2)CC1 | 38
CCC1(C)C(C)=Nc2ccc(-c3nc(Nc4ccc(N5CCN(C)CC5)cn4)ncc3F)cc21 (configuration not stated) | 22
CCN1CCC(c2ccc(Nc3ncc(F)c(-c4ccc5c(c4)C4(CCCC4)C(C)=N5)n3)nc2)CC1 | 5
CCC1(C)C(C)=Nc2ccc(-c3nc(Nc4ccc(C5CCN(C)CC5)cn4)ncc3F)cc21 (configuration not stated) | 6
CCN1CCC(c2ccc(Nc3ncc(F)c(-c4cc(F)c5c(c4)C(C)(CC)C(C)=N5)n3)nc2)CC1 (configuration not stated) | 18

biological target: CDK6/cyclin D3 (Homo sapiens, UniProt Q00534); assay: Inhibition of CDK6/Cyclin-D3 (unknown origin) using histoneH1 as substrate after 90 mins by ADP-Glo assay; type: protein-complex assay
Sequence (P30281 whole entry): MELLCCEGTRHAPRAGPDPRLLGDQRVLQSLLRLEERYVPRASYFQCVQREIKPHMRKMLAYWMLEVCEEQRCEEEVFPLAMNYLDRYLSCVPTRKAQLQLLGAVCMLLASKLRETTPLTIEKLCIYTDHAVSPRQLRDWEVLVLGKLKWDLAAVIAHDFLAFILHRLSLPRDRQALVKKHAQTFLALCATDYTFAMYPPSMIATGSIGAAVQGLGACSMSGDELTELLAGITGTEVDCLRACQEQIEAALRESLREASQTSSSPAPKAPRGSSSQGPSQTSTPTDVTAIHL
Sequence (Q00534 whole entry): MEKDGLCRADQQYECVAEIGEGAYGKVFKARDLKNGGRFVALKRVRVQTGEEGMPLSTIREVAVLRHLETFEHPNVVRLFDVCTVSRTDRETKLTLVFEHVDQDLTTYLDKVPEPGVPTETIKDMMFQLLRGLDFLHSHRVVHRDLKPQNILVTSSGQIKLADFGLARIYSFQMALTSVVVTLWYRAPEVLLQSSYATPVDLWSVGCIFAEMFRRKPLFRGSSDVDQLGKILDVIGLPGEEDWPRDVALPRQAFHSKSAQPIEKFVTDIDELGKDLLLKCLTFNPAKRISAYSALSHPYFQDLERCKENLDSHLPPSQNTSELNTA

SMILES | IC50
CC1=Nc2c(F)cc(-c3nc(Nc4ccc(C5CCN(CCO)CC5)cn4)ncc3F)cc2C12CCCC2 | 0.5 nM
CCC1(C)C(C)=Nc2c(F)cc(-c3nc(Nc4ccc(C5CCNCC5)cn4)ncc3F)cc21 (configuration not stated) | 6 nM
CCN1CCN(c2ccc(Nc3ncc(F)c(-c4ccc5c(c4)C(C)(CC)C(C)=N5)n3)nc2)CC1 (configuration not stated) | 4 nM
CC1=Nc2ccc(-c3nc(Nc4ccc(C5CCN(C)CC5)cn4)ncc3F)cc2C12CCCC2 | 4 nM
CC1=Nc2c(F)cc(-c3nc(Nc4ccc(N5CCN(C(C)C)CC5)cn4)ncc3F)cc2C12CCCC2 | 10 nM
CC1=Nc2c(F)cc(-c3nc(Nc4ccc(N5CCN(CCO)CC5)cn4)ncc3F)cc2C12CCCC2 | 6 nM
CCC1(C)C(C)=Nc2ccc(-c3nc(Nc4ccc(C5CCNCC5)cn4)ncc3F)cc21 (configuration not stated) | 16 nM
CCN1CCN(Cc2ccc(Nc3ncc(F)c(-c4ccc5c(c4)C4(CCCC4)C(C)=N5)n3)nc2)CC1 | 7 nM
CCC1(C)C(C)=Nc2ccc(-c3nc(Nc4ccc(N5CCN(C)CC5)cn4)ncc3F)cc21 (configuration not stated) | 5 nM
CCC1(C)C(C)=Nc2ccc(-c3nc(Nc4ccc(C5CCN(C)CC5)cn4)ncc3F)cc21 (configuration not stated) | 9 nM
CCN1CCC(c2ccc(Nc3ncc(F)c(-c4cc(F)c5c(c4)C(C)(CC)C(C)=N5)n3)nc2)CC1 (configuration not stated) | 12 nM

biological target: CDK1/Cyclin A (Homo sapiens, UniProt P06493); assay: Inhibition of CDK1/Cyclin-A2 (unknown origin) using histone-H1 as substrate after 90 mins by ADP-Glo assay; type: protein-complex assay
Sequence (P06493 whole entry): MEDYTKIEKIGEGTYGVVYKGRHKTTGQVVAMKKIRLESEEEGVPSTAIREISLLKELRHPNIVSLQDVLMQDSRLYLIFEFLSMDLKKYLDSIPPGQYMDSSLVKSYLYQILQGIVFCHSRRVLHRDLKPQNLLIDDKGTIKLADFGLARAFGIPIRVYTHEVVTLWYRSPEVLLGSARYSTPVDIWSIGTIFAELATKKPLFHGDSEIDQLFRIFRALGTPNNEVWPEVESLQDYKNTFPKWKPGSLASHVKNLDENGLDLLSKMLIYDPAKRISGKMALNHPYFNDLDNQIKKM
Sequence (P20248 whole entry, further chain): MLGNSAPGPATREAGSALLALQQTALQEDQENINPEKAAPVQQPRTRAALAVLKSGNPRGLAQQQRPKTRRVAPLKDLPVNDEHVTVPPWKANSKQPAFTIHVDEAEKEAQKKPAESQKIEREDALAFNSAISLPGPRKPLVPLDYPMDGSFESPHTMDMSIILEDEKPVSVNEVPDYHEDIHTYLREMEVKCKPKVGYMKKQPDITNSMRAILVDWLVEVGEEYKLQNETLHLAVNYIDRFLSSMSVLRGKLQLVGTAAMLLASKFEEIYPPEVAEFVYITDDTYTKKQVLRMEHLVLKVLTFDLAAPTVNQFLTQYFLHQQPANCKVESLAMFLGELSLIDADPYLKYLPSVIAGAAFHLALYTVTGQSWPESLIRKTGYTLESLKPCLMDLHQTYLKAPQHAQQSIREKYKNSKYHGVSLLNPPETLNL

SMILES | IC50
CCC1(C)C(C)=Nc2c(F)cc(-c3nc(Nc4ccc(C5CCNCC5)cn4)ncc3F)cc21 (configuration not stated) | 110 nM
CCN1CCN(c2ccc(Nc3ncc(F)c(-c4ccc5c(c4)C(C)(CC)C(C)=N5)n3)nc2)CC1 (configuration not stated) | 101 nM
CC1=Nc2c(F)cc(-c3nc(Nc4ccc(N5CCN(C(C)C)CC5)cn4)ncc3F)cc2C12CCCC2 | 1060 nM
CC1=Nc2c(F)cc(-c3nc(Nc4ccc(N5CCNCC5)cn4)ncc3F)cc2C1(C)C | 2220 nM
CCC1(C)C(C)=Nc2ccc(-c3nc(Nc4ccc(C5CCNCC5)cn4)ncc3F)cc21 (configuration not stated) | 166 nM
CCN1CCN(c2ccc(Nc3ncc(F)c(-c4cc(F)c5c(c4)C(C)(CC)C(C)=N5)n3)nc2)CC1 (configuration not stated) | 65 nM
CCC1(C)C(C)=Nc2ccc(-c3nc(Nc4ccc(N5CCN(C)CC5)cn4)ncc3F)cc21 (configuration not stated) | 112 nM
CCC1(C)C(C)=Nc2ccc(-c3nc(Nc4ccc(C5CCN(C)CC5)cn4)ncc3F)cc21 (configuration not stated) | 54 nM
CCN1CCC(c2ccc(Nc3ncc(F)c(-c4cc(F)c5c(c4)C(C)(CC)C(C)=N5)n3)nc2)CC1 (configuration not stated) | 216 nM
